Literature values as cited in patent US20190216738A1, “PIRFENIDONE-CONTAINING TABLET AND CAPSULE FORMULATION” (Laurus Labs Ltd, priority 2018, published 2019).

- solubility (1.0 N HCl, water and 1.0 N NaOH): sparingly soluble
- dissolution in water (solubility) (water, 25° C., pH independent): 19 mg/mL
Structure (SMILES): Cc1ccc(=O)n(-c2ccccc2)c1 [Pirfenidone]
